Experimental data taken from patent US20260166029A1, “METHODS AND SYSTEMS FOR TREATING DISEASE USING AN ATR/CHK1 SIGNALING PATHWAY INHIBITOR” (Acrivon Therapeutics, Inc., priority 2022, published 2026).

What was measured:
[1] = test system: OVCAR3-P and OVCAR3-R cells; test: Global pan-/phospho-proteomic analysis and western blot after gemcitabine (Example 12); format: cell-based, human; details: gemcitabine 10 nM for 24 hours vs DMSO control
Protocol: To determine whether treatment with gemcitabine can alter the abundance of biomarkers associated with a Response-Predictive Signature, a global pan-proteomic and phosphor-proteomic analysis was performed to compare treatment with low dose gemcitabine (10 nM for 24 hours) to DMSO control in both OVCAR3-P and OVCAR3-R cells.

A2780 = test: Cell Titer Glo 2.0 relative cell viability, 72 h (Example 10); format: cell-based; details: Homo sapiens, A2780 cell line, read-out: Abs IC50
Protocol: (§1) The present Example provides experimental evidence that cell lines predicted to be sensitive to a Chk1 inhibitor (e.g., prexasertib, are also sensitive to Wee1 inhibitors (e.g., adavosertib (AZD1775, MK1775) and azenosertib (Zn-C3)). Cell lines were treated with increasing doses of either prexasertib, adavosertib, or azenosertib, and relative cell viability against a DMSO control was assessed 72 h after drug treatment using Cell Titer Glo 2.0 (Promega) and a SpectraMax microplate reader. The results are shown in FIGS. 19A-19C. Error bars represent standard deviations from quadruplicate samples.

A375 = test: as above; format: cell-based; details: Homo sapiens, A-375, A375 cell line, read-out: Abs IC50
Protocol: as §1

T47D = test: as above; format: cell-based; details: Homo sapiens, T47D cell line, read-out: Abs IC50
Protocol: as §1

OVCAR3 = test: as above; format: cell-based; details: Homo sapiens, OVCAR-3, OVCAR3 cell line, read-out: Abs IC50
Protocol: as §1

PC3 = test: as above; format: cell-based; details: Homo sapiens, PC-3, PC3 cell line, read-out: Abs IC50
Protocol: as §1

HeLa = test: as above; format: cell-based; details: Homo sapiens, HeLa cell line, read-out: Abs IC50
Protocol: as §1

BxPC3 = test: as above; format: cell-based; details: Homo sapiens, BXPC-3, BxPC3 cell line, read-out: Abs IC50
Protocol: as §1

Row | IC50 (A2780) [nM] | IC50 (A375) [nM] | IC50 (T47D) [nM] | IC50 (OVCAR3) [nM] | IC50 (PC3) [nM] | IC50 (HeLa) [nM] | IC50 (BxPC3) [nM] | SMILES | Ser296 phosphorylated Chk1 (BM1) abundance [1] | abundance of total cyclin E1 (BM3) [1]
1 |  |  |  |  |  |  |  | Nc1ccn([C@@H]2O[C@H](CO)[C@@H](O)C2(F)F)c(=O)n1 [gemcitabine, 2′,2′-difluoro 2′-deoxycytidine] | significant increase | significant increase
2 | 900 | 239 | > 10000 | 233 | > 10000 | 604 | 448 | C=CCn1c(=O)c2cnc(Nc3ccc(N4CCN(C)CC4)cc3)nc2n1-c1ccc2c(n1)[C@@](O)(CC)CC2 [Azenosertib] |  | 
3 | 653 | 170 | > 10000 | 237 | > 10000 | 328 | 360 | C=CCn1c(=O)c2cnc(Nc3ccc(N4CCN(C)CC4)cc3)nc2n1-c1cccc(C(C)(C)O)n1 [Adavosertib] |  | 
